The test system of data set [1] is CYP2D6. The data set is described as follows: CYP selective diagnostic inhibition studies in HLM, quinidine. The class given is in vitro ADME, human. The conditions noted are these: quinidine 10 µmol/L. As to the method:
(§1) Reactions were carried out in triplicate in 96 well plates. Each reaction was measured at 2 time points, that is at 0 and 30 minutes. […] Furafylline, KTZ, ticlopidine, and quinidine were used as diagnostic inhibitors for CYP 1A2, 3A4/5, 2C19 and 2D6, respectively. The reactions were initiated by addition of NADPH after a pre‐incubation of 5 minutes at 37°C. All reactions were terminated by the addition of 150 µL ice‐cold ACN. Internal standard (0.2 µmol/L DPZ) was added to ACN prior to termination of the assay. This was followed by centrifugation at 4500 g for 20 minutes. An aliquot (50 µL) supernatant was collected and 5 µL was injected and analyzed by liquid chromatography/tandem mass spectrometry (LC/MS/MS). The percent effect of each inhibitor was the estimated contribution of the inhibited CYP calculated using the relationship below: %contribution=amount remaining with inhibitor‐amount remaining without inhibitor/amount remaining without inhibitor×100.

Data set [2] has as its target T1, CYP2C19 (Homo sapiens, UniProt P33261). The data set is described as follows: Qualitative substrate disappearance assay. The class given is in vitro ADME. On the set-up: purchased CYPEX CYP008; host or cells: Escherichia coli. As to conditions: 20 pmols rCYP, 1.0 µmol/L substrate, 30 minutes. As to the method: All reactions were performed in triplicate in 96‐well plates. […] The substrate was diluted to 40% ACN so that the percent organic component in the final solution was maintained at 1%. […] The reactions were initiated by addition of NADPH after a pre‐incubation of 5 minutes at 37°C. All reactions were terminated by the addition of 150 µL of ice‐cold ACN at either 0 minute (control) or 30 minutes (reaction). This was followed by centrifugation at 4500 g for 20 minutes. An aliquot (50 µL) supernatant was collected and 5 µL was injected and analyzed by liquid chromatography/tandem mass spectrometry (LC/MS/MS). Metabolism was signified qualitatively by loss of substrate from the media using the relationship: %remaining compound=[…]Peak area atT30min/Peak area atT0min×100.

In data set [3] the test system is CYP2C19. As to the kind of experiment: CYP selective diagnostic inhibition studies in HLM, ticlopidine. As to conditions: ticlopidine 10 µmol/L. The class given is in vitro ADME, human. The method, then: as §1
In another data set the test system is CYP3A4/5. As to the kind of experiment: CYP selective diagnostic inhibition studies in HLM, ketoconazole. As to conditions: ketoconazole 10 µmol/L. The class given is in vitro ADME, human. As to the method: as §1
Data set [4] relates to HLM. The data set is described as follows: Enzyme kinetics of hydroxylated metabolites formation. The data set is classed as in vitro ADME, human. The method, then: The reactions were carried out in duplicate at each time point. Incubation conditions used for the determination of K M and V max were optimized for linearity with respect to time and protein concentrations. […] Metabolites were analyzed by LC‐MS/MS as described below. The K M and V max values of each marker substrate were determined using nonlinear least squares regression analysis in GraFit software (version 3.0, Erithacus Software Limited) and SigmaPlot Enzyme Kinetics Module for Windows 7.0 (SPSS, Inc). […]

The target of data set [5] is CYP2D6 (Homo sapiens, UniProt P10635). The data set is described as follows: Intrinsic clearance, substrate depletion approach. The conditions noted are these: rCYP2D6, substrate depletion.
Sequence of CYP2D6 (Homo sapiens, UniProt P10635) (P10635 whole entry): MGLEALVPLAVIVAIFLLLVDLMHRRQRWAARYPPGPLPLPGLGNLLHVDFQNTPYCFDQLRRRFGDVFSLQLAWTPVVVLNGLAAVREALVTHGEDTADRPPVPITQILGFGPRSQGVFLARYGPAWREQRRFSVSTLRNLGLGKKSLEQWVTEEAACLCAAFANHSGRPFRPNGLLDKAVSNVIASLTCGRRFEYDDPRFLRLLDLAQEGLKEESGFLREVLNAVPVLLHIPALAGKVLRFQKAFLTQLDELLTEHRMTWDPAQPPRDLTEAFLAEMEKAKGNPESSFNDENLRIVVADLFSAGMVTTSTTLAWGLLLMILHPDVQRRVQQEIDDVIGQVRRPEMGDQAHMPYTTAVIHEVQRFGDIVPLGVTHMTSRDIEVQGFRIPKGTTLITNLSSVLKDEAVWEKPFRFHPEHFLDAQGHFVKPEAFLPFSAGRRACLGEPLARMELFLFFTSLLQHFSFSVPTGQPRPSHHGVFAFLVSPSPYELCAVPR
For data set [6] the following is noted: cited from earlier work.
Data set [7] has as its target T1, CYP2C19. As to the kind of experiment: Enzyme kinetics of hydroxylated metabolites formation. The conditions noted are these: CYP2C19, formation of cis‐4‐OH‐PZQ. On the set-up: purchased CYPEX CYP008; host or cells: Escherichia coli. The data set is classed as in vitro ADME. The method, then:
The reactions were carried out in duplicate at each time point. Incubation conditions used for the determination of K M and V max were optimized for linearity with respect to time and protein concentrations. […] Metabolites were analyzed by LC‐MS/MS as described below. The K M and V max values of each marker substrate were determined using nonlinear least squares regression analysis in GraFit software (version 3.0, Erithacus Software Limited) and SigmaPlot Enzyme Kinetics Module for Windows 7.0 (SPSS, Inc).
(§2) The well‐stirred model was used to estimate the hepatic clearance (CLH) due to metabolism.

The subject of data set [8] is CYP1A2. The data set is described as follows: CYP selective diagnostic inhibition studies in HLM, furafylline. The conditions noted are these: furafylline 10 µmol/L. The class given is in vitro ADME, human. The method, then: as §1
Data set [9] has as its system HLM. The data set is described as follows: Intrinsic clearance, substrate depletion approach. The data set is classed as in vitro ADME, human. As to conditions: substrate depletion; for Predicted CLuH,int / Predicted CLH: HLM; for Predicted CLH: well‐stirred model. The method, then: (§3) The generic conditions were previously described by Masimirembwa and co‐workers. ^24 , ^25 Each reaction mixture consisted of substrate incubated with appropriate enzyme, substrate, and NADPH in potassium phosphate buffer pH 7.4 in a final volume of 200 µL. The substrate was diluted to 40% ACN so that the percent organic component in the final solution was maintained at 1%. The reactions were quenched with 3 volumes of stop solution containing ACN and 0.8% formic acid at 0, 5, 10, 20, 30, 40, and 60 minutes. This was followed by centrifugation at 4500 g for 20 minutes. An aliquot (50 µL) supernatant was collected and diluted (1:1) in water prior to LC‐MS/MS analysis.
(§4) Each reaction was monitored over 7 time points.
as §2

Data set [10] can be described thus: Intrinsic clearance, substrate depletion approach. The class given is in vitro ADME, human. The conditions noted are these: human, human liver microsomes, pH 7.4; HLM, 1 µmol/L substrate. As to the method: as §3, §4, §2
In data set [11] the target is T2, CYP1A2 (Homo sapiens, UniProt P05177).
T2 sequence (P05177 1-516): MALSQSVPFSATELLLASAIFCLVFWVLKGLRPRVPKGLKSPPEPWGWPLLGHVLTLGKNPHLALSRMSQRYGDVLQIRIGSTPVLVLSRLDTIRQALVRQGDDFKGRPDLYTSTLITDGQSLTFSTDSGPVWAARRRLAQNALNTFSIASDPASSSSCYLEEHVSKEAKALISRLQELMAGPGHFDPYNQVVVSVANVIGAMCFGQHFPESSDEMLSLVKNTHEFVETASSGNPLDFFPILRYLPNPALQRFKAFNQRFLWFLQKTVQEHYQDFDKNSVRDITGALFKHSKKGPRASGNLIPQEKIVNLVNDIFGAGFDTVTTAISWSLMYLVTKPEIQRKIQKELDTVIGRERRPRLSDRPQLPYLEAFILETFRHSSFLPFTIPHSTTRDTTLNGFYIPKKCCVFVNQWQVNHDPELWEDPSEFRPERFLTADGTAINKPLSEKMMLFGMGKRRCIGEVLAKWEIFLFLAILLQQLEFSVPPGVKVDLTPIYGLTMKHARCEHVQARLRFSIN
The data set is described as follows: Intrinsic clearance, substrate depletion approach. The conditions noted are these: for Predicted CLH / Predicted CLuH,int: rCYP1A2, substrate depletion.

Structures are written as SMILES. Values joined by “and” are separate entries in the source; they are usually repeats but may differ in a detail not shown here. Equal entries are not always repeated.

As usually defined, the half-life is the time needed for the level to fall by half in the phase considered.

T1 sequence (P33261 whole entry): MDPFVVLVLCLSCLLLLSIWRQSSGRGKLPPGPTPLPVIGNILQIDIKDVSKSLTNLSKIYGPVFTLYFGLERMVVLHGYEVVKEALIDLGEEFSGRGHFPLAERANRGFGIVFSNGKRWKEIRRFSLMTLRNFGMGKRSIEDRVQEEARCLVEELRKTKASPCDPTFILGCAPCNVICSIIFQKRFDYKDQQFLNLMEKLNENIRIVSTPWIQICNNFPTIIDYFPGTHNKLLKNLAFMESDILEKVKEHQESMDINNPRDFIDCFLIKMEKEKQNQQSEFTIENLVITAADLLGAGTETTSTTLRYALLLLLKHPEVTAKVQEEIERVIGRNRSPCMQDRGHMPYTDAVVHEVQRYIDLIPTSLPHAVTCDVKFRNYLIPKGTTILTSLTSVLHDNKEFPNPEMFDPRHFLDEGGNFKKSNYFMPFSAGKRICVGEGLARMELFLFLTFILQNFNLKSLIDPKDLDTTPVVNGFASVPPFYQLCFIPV

For the compound `O=C(C1CCCCC1)N1CC(=O)N2CCc3ccccc3[C@@H]2C1` [R‐PZQ, R‐Praziquantel], the “Contribution of CYP2D6” value in the data set with CYP2D6 [1] turned out to be 51%. In addition, the “Depletion of substrate by CYP2C19” value on CYP2C19 [2] was “complete depletion”. In addition, in the data set with CYP2C19 [3], the “Contribution of CYP2C19” value came out at 64%. Moreover, the “Contribution of CYP3A4/5” value in the data set on CYP3A4/5 was 33%. In addition, the “K M [SD]” value in the data set with HLM [4] (formation of X‐OH‐PZQ) is 29.30 [4.020] µmol/L; in the data set with HLM [4] (formation of cis‐4‐OH‐PZQ), 38.90 [5.469] µmol/L. The “V max [SD]” value in the data set with HLM [4] (formation of X‐OH‐PZQ) was 1.2 nmol/min/mg protein and 1.200 [0.06266] nmol/min/mg protein; in the data set with HLM [4] (formation of cis‐4‐OH‐PZQ), 0.7572 [0.0447] nmol/min/mg protein. The “Predicted CLH” value at CYP2D6 [5] is recorded as 0.2132 mL/min/kg; in the data set on HLM [9], 13.06 mL/min/kg; on CYP1A2 [11], 5.071 mL/min/kg. Also, the “Predicted CLuH,int” value on CYP2D6 [5] is 0.860 mL/min/kg; with HLM [9], 172.0 mL/min/kg; at CYP1A2 [11], 27.80 mL/min/kg. Besides, the “Fraction unbound in plasma (fu)” value in [6] was 0.2. Further, the “CLuH,int” value at CYP2C19 [7] is 4.60 mL/min/kg and 4.600 mL/min/kg. In addition, the “Contribution of CYP1A2” value in the data set on CYP1A2 [8] is 61%. The “Clearance class, HLM‐mediated” value in the data set with HLM [9] is on record as “high”. For the same compound, the half-life at 1 µmol/L in [10] was 11.5 min. For the same compound, the “Clearance class, CYP1A2‐mediated” value at CYP1A2 [11] (substrate depletion) is recorded as “high”. In addition, the “Clearance by CYP1A2, R‐PZQ compared to S‐PZQ” value on CYP1A2 [11] (substrate depletion, times faster) worked out at 2 times.

Regarding `O=C(C1CCCCC1)N1CC(=O)N2CCc3ccccc3[C@H]2C1` [S‐PZQ, S‐Praziquantel], the “Contribution of CYP2D6” value with CYP2D6 [1] was determined as 54%. Also, on CYP2C19 [2], the “Depletion of substrate by CYP2C19” value is reported as “complete depletion”. Further, the “Contribution of CYP2C19” value in the data set with CYP2C19 [3] stood at 117%. Further, the “Contribution of CYP3A4/5” value with CYP3A4/5 is reported as 131%. In addition, the “K M [SD]” value was 61.00 [22.12] µmol/L in the data set on HLM [4] (formation of X‐OH‐PZQ) and 44.30 [12.06] µmol/L in the data set on HLM [4] (formation of cis‐4‐OH‐PZQ). The “V max [SD]” value in the data set with HLM [4] (formation of X‐OH‐PZQ) was 6.3 nmol/min/mg protein and 6.300 [1.102] nmol/min/mg protein; with HLM [4] (formation of cis‐4‐OH‐PZQ), 0.2700 [0.02999] nmol/min/mg protein. In addition, the “Predicted CLH” value at CYP2D6 [5] is given as 0.1712 mL/min/kg; in the data set on HLM [9] it was 10.78 mL/min/kg; at CYP1A2 [11], 2.877 mL/min/kg. Further, the figures for the “Predicted CLuH,int” value at CYP2D6 [5], in the data set with HLM [9] and on CYP1A2 [11] were 0.660 mL/min/kg, 97.50 mL/min/kg and 13.07 mL/min/kg, respectively. Moreover, the “Fraction unbound in plasma (fu)” value in data set [6] was 0.2. For the same compound, at CYP2C19 [7], the “CLuH,int” value is 2.44 mL/min/kg and 2.440 mL/min/kg. The “Contribution of CYP1A2” value in the data set with CYP1A2 [8] amounted to 27%. The compound also returned a half-life at 1 µmol/L in [10] of 29.5 min.

Source of the values: article PMC7376644 (Pharmacology Research & Perspectives, 2020).
